Data published in ChEMBL document CHEMBL4814079, “Structure-Activity Relationship for the Picolinamide Antibacterials that Selectively Target Clostridioides difficile” (ACS Med Chem Lett, 2021).
In brackets after ≈: the same amount, converted by molar mass.

Experiments:
[1] = Antibacterial activity against gut Limosilactobacillus-reuteri HM-102 assessed as reduction in bacterial growth measured after 48 hrs by CLSI based broth microdilution method
Bifidobacterium longum = test: Antibacterial activity against gut Bifidobacterium longum HM-846 assessed as reduction in bacterial growth measured after 48 hrs by CLSI based broth microdilution method; assay type: organism-based
Bacteroides fragilis = test: Antibacterial activity against gut Bacteroides fragilis HM-709 assessed as reduction in bacterial growth measured after 48 hrs by CLSI based broth microdilution method; assay type: organism-based; settings: in vitro
Veillonella = test: Antibacterial activity against gut Veillonella sp HM-49 assessed as reduction in bacterial growth measured after 48 hrs by CLSI based broth microdilution method; assay type: organism-based; settings: in vitro
Lactobacillus gasseri = test: Antibacterial activity against gut Lactobacillus gasseri HM-664 assessed as reduction in bacterial growth measured after 48 hrs by CLSI based broth microdilution method; assay type: organism-based; settings: in vitro
Fusobacterium nucleatum = test: Antibacterial activity against gut Fusobacterium nucleatum HM-992 assessed as reduction in bacterial growth measured after 48 hrs by CLSI based broth microdilution method; assay type: organism-based; settings: in vitro
Eubacterium sp. = test: Antibacterial activity against gut Eubacterium sp. HM-178 assessed as reduction in bacterial growth measured after 48 hrs by CLSI based broth microdilution method; assay type: organism-based
Clostridioides difficile = test: Antibacterial activity against Clostridium difficile ATCC 43255 assessed as reduction in bacterial growth measured after 48 hrs by CLSI based broth microdilution method; assay type: functional
Staphylococcus aureus = test: Antibacterial activity against […] Staphylococcus aureus ATCC 29213 assessed as reduction in bacterial growth measured after 48 hrs by CLSI based broth microdilution method; assay type: functional
[2] = Selectivity index, ratio of MIC of […] Staphylococcus aureus ATCC 29213 to MIC of Clostridium difficile ATCC 43255; assay type: functional
Corynebacterium = test: Antibacterial activity against gut Corynebacterium HM-784 assessed as reduction in bacterial growth measured after 48 hrs by CLSI based broth microdilution method; assay type: organism-based
Enterococcus faecium = test: Antibacterial activity against Enterococcus faecium ATCC 19434 assessed as reduction in bacterial growth measured after 48 hrs by CLSI based broth microdilution method; assay type: functional
HeLa [3] = test: Cytotoxicity against human HeLa cells assessed as reduction in cell viability incubated for 16 hrs by XTT assay; assay type: cell-based
[4] = Ratio of drug excretion in CD-1 mouse feces to MIC for antibacterial activity against Clostridium difficile ATCC 43255; assay type: toxicity; settings: in vivo
[5] = Plasma concentration in CD1 mouse at 10 mg/kg, po measured upto 8 hrs by LC-MS/MS analysis; assay type: ADME, organism-based; settings: in vivo, BLD = below limit of detection
[6] = Drug excretion in CD1 mouse feces at 10 mg/kg, po measured upto 8 hrs by LC-MS/MS analysis; assay type: ADME, organism-based; settings: in vivo
[7] = Plasma concentration in CD1 mouse at 20 mg/kg, po measured upto 8 hrs by LC-MS/MS analysis; assay type: ADME, organism-based; settings: in vivo, BLD = below limit of detection
[8] = Drug excretion in CD1 mouse feces at 20 mg/kg, po measured upto 8 hrs by LC-MS/MS analysis; assay type: ADME, organism-based; settings: in vivo
HeLa [9] = test: Cytotoxicity against human HeLa cells assessed as reduction in cell viability at 64 ug/ml incubated for 16 hrs by XTT assay; assay type: cell-based; settings: dose 64 µg/ml

## CN[C@H](CC(C)C)C(=O)N[C@H]1C(=O)N[C@@H](CC(N)=O)C(=O)N[C@H]2C(=O)N[C@H]3C(=O)N[C@H](C(=O)N[C@H](C(=O)O)c4cc(O)cc(O)c4-c4cc3ccc4O)[C@H](O)c3ccc(c(Cl)c3)Oc3cc2cc(c3O[C@@H]2O[C@H](CO)[C@@H](O)[C@H](O)[C@H]2O[C@H]2C[C@](C)(N)[C@H](O)[C@H](C)O2)Oc2ccc(cc2Cl)[C@H]1O [VANCOMYCIN]
[1]
  MIC: > 32 µg/mL
Bifidobacterium longum
  MIC: 0.25 µg/mL (≈ 0.173 µM)
Bacteroides fragilis
  MIC: 16 µg/mL (≈ 11 µM)
Veillonella
  MIC: > 32 µg/mL
Lactobacillus gasseri
  MIC: 1 µg/mL (≈ 0.69 µM)
Fusobacterium nucleatum
  MIC: 0.25 µg/mL (≈ 0.173 µM)
Eubacterium sp.
  MIC: 2 µg/mL (≈ 1.38 µM)

## O=C(Nc1ncco1)c1cc(-c2cccc(C(F)(F)F)c2)ccn1
Clostridioides difficile
  MIC: 0.5 µg/mL (≈ 1.5 µM)
Staphylococcus aureus
  MIC: 64 µg/mL (≈ 192 µM)
[2]
  Ratio: 128

## O=C(Nc1ncco1)c1cc(-c2ccc(Cl)cc2)ccn1
Clostridioides difficile
  MIC: 4 µg/mL (≈ 13.3 µM)
Staphylococcus aureus
  MIC: 128 µg/mL (≈ 427 µM)
[2]
  Ratio: 32

## O=C(Nc1ncco1)c1cc(-c2ccc(Cl)c(Cl)c2)ccn1
Corynebacterium
  MIC: 16 µg/mL (≈ 47.9 µM)
Clostridioides difficile
  MIC: 0.125 µg/mL (≈ 0.374 µM)
[1]
  MIC: 4 µg/mL (≈ 12 µM)
Bifidobacterium longum
  MIC: > 16 µg/mL
Enterococcus faecium
  MIC: ≥ 128 µg/mL
Bacteroides fragilis
  MIC: 4 µg/mL (≈ 12 µM)
Veillonella
  MIC: 16 µg/mL (≈ 47.9 µM)
Lactobacillus gasseri
  MIC: > 16 µg/mL
Fusobacterium nucleatum
  MIC: 8 µg/mL (≈ 23.9 µM)
Eubacterium sp.
  MIC: 8 µg/mL (≈ 23.9 µM)
HeLa [3]
  IC50: 95.2 µg/mL
Staphylococcus aureus
  MIC: 128 µg/mL (≈ 383 µM)
[4]
  Ratio: 6.6
[5]
  Cp: Bld
[2]
  Ratio: 1024
[6]
  Drug excretion: 0.79 µg/g

## O=C(Nc1ncco1)c1cc(Oc2cccc(OC(F)(F)F)c2)ccn1
Corynebacterium
  MIC: > 16 µg/mL
Clostridioides difficile
  MIC: 1 µg/mL (≈ 2.74 µM)
[1]
  MIC: 4 µg/mL (≈ 11 µM)
Bifidobacterium longum
  MIC: 16 µg/mL (≈ 43.8 µM)
Bacteroides fragilis
  MIC: 8 µg/mL (≈ 21.9 µM)
Veillonella
  MIC: 16 µg/mL (≈ 43.8 µM)
Lactobacillus gasseri
  MIC: > 16 µg/mL
[7]
  Cp: Bld
Fusobacterium nucleatum
  MIC: 8 µg/mL (≈ 21.9 µM)
Eubacterium sp.
  MIC: 8 µg/mL (≈ 21.9 µM)
[8]
  Drug excretion: 49 µg/g
Staphylococcus aureus
  MIC: 64 µg/mL (≈ 175 µM)
[4]
  Ratio: 49
[2]
  Ratio: 64

## O=C(O)c1ccc2oc(NC(=O)c3cc(Oc4ccc(F)c(F)c4)ccn3)nc2c1 [listing 1 of 2 here]
[2]
  Ratio: 128

## O=C(Nc1ncco1)c1cc(-c2ccc(F)c(F)c2)ccn1
Clostridioides difficile
  MIC: 0.5 µg/mL (≈ 1.66 µM)
HeLa [9]
  Activity: Non-Toxic
Staphylococcus aureus
  MIC: 128 µg/mL (≈ 425 µM)
[2]
  Ratio: 256

## O=C(O)c1ccc2oc(NC(=O)c3cc(Oc4ccc(F)c(F)c4)ccn3)nc2c1 [listing 2 of 2 here]
Clostridioides difficile
  MIC: 0.5 µg/mL (≈ 1.22 µM)
Staphylococcus aureus
  MIC: 64 µg/mL (≈ 156 µM)

## O=C(Nc1ncco1)c1cc(-c2ccc(C(F)(F)F)cc2)ccn1
Clostridioides difficile
  MIC: 0.25 µg/mL (≈ 0.75 µM)
Staphylococcus aureus
  MIC: 128 µg/mL (≈ 384 µM)
[2]
  Ratio: 512

## O=C(Nc1ncco1)c1cc(Oc2ccc(SC(F)(F)F)cc2)ccn1
Clostridioides difficile
  MIC: 1 µg/mL (≈ 2.62 µM)
Staphylococcus aureus
  MIC: ≥ 256 µg/mL
[2]
  Ratio: > 256

## O=C(Nc1ncco1)c1cc(-c2cccc(OC(F)(F)F)c2)ccn1
Clostridioides difficile
  MIC: 0.5 µg/mL (≈ 1.43 µM)
Staphylococcus aureus
  MIC: ≥ 256 µg/mL
[2]
  Ratio: > 512

## COC(=O)c1ccc2oc(NC(=O)c3cc(Oc4ccc(F)c(F)c4)ccn3)nc2c1
Clostridioides difficile
  MIC: 0.25 µg/mL (≈ 0.588 µM)
Staphylococcus aureus
  MIC: 64 µg/mL (≈ 150 µM)
[2]
  Ratio: 256

## O=C(Nc1ncco1)c1cc(Oc2cccc(F)c2)ccn1
Clostridioides difficile
  MIC: 1 µg/mL (≈ 3.34 µM)
[7]
  Cp: Bld
[8]
  Drug excretion: 2.4 µg/g
Staphylococcus aureus
  MIC: ≥ 256 µg/mL
[4]
  Ratio: 2.4
[2]
  Ratio: > 256

## O=C(Nc1ncco1)c1ccnc(-c2ccc(Cl)c(Cl)c2)c1
Corynebacterium
  MIC: 0.5 µg/mL (≈ 1.5 µM)
Clostridioides difficile
  MIC: 0.25 µg/mL (≈ 0.748 µM)
[1]
  MIC: 8 µg/mL (≈ 23.9 µM)
Bifidobacterium longum
  MIC: > 16 µg/mL
Enterococcus faecium
  MIC: 0.06 µg/mL (≈ 0.18 µM)
Bacteroides fragilis
  MIC: 1 µg/mL (≈ 2.99 µM)
Veillonella
  MIC: 4 µg/mL (≈ 12 µM)
Lactobacillus gasseri
  MIC: > 16 µg/mL
[7]
  Cp: Bld
Fusobacterium nucleatum
  MIC: 8 µg/mL (≈ 23.9 µM)
Eubacterium sp.
  MIC: > 16 µg/mL
HeLa [3]
  IC50: 79.9 µM
[8]
  Drug excretion: 2.8 µg/g
Staphylococcus aureus
  MIC: 25 µg/mL (≈ 74.8 µM)
[4]
  Ratio: 11

## O=C(Nc1ncco1)c1cc(-c2ccc(F)cc2)ccn1
Clostridioides difficile
  MIC: 1 µg/mL (≈ 3.53 µM)
Staphylococcus aureus
  MIC: 64 µg/mL (≈ 226 µM)
[2]
  Ratio: 64
